According to patent US6140362A, “Method for inhibiting the growth of mammalian cells” (Rohm and Haas Company, priority 1997, dated 2000):
Like-named read-outs stand apart in the source and are kept apart here.

Tests used:
[1] = test system: mouse lymphoma cell line L5178Y; assay: Growth inhibition of mouse lymphoma cells (L5178Y), 48 h; assay type: cell-based; settings: for inhibition at 50 µM: 50 micromolar; for inhibition at 20 µM: 20 micromolar; for inhibition at 10 µM: read-out: Inhibition of growth; for inhibition at 2 µM: 2 micromolar
Description: Effects of compounds on growth of mouse lymphoma cell line L5178Y, were determined as follows. Cells were grown in Fischer's medium (obtained from Life Technologies, Inc., Gaithersburg, Md.) containing 0.24 grams per liter (g/l) sodium pyruvate, 1.12 g/l surfactant (Pluronic F-68, from BASF Corporation, Parsippany, N.J.), and 10% by volume (10% v/v) heat-inactivated horse serum (obtained from Life Technologies, Inc) at 37° C. To 30 ml aliquots of cell suspension (2×10^4 cells per milliliter (mL)) in exponential growth phase were added test compounds dissolved in dimethylsulfoxide (DMSO) at various concentrations such that the final DMSO concentration in the mixtures was 0.25%. Tubes were gassed with 5% CO2 then incubated on a roller drum apparatus. After 48 hours the cells were treated with 0.1% trypsin (Life Technologies, Inc.,) for 10 minutes and counted in a Coulter Counter equipped with a 140 micrometer (μM) aperture. Percent inhibition of growth was calculated by comparing the number of cells in assays containing test compound with the number of cells in controls lacking the test compound.

tubulin = assay: Inhibition of microtubule assembly; assay type: biochemical, calf; settings: preincubated 1 h at 37° C.
Description: Compounds were evaluated for their ability to inhibit tubulin assembly into microtubules by comparing the extent of cold-reversible assembly in the presence of each test compound with controls lacking the test compound. Tubulin was isolated from calf brain tissue by two cycles of assembly/disassembly as described by Vallee, R. B. in Methods in Enzymology, vol. 134, pp. 89-104. Assay mixtures contained 1 mg/ml of purified tubulin in 1 M sodium glutamate, pH 6.6, 1 millimolar (mM) MgCl2, and the test compound, which was added as a solution in DMSO. The final concentration of DMSO in each assay was 2% (v/v). Assay mixtures were preincubated at 37° C. for 1 h, then chilled on ice for 5 min. Microtubule assembly was initiated by addition of guanosine triphosphate (0.1 mM), and incubation at 37° C. Assembly was followed turbidimetrically at 350 nm for 20 minutes (min) using a temperature-controlled cell in a Cary 2200 spectrophotometer. Since microtubules undergo depolymerization at 0° C., assembly was confirmed by measuring the reduction in turbidity following incubation for 30 min at 0° C. The difference in absorbance before and after incubation for 30 min at 0° C. (ΔA350) represents the extent of microtubule assembly. Inhibition of assembly was calculated by subtracting the (ΔA350) values for treatments with test compounds from the (ΔA350) for controls without test compound, and expressing this difference as a percentage of the (ΔA350) value for the control. Results including test compound number, test compound concentration in micromoles per liter (μM) and percent inhibition are set forth in Table 11.

Ovarian cancer (OVCAR8) = assay: Growth inhibition of human tumor cell lines: Ovarian cancer (OVCAR8); assay type: cell-based; settings: OVCAR-8, cell line G = Ovarian cancer (OVCAR8), NCI testing
Description: (§1) Selected compounds were evaluated by the National Cancer Institute, Bethesda, Md. against 60 human tumor cell lines according to procedures described in Principles and Practices of Oncology, volume 3, issue number 10, pp. 1-12. Results of the testing against representative cell lines including the test compound number, and the GI50 values (μM) are set forth in Table 3. The GI50 value is the concentration required to inhibit cell growth by 50% as compared to untreated control cultures.

Melanoma (SKMEL-2) = assay: Growth inhibition of human tumor cell lines: Melanoma (SKMEL-2); assay type: cell-based; settings: SK-MEL-2, cell line F = Melanoma (SKMEL-2), NCI testing
Description: as §1

Leukemia (SR) = assay: Growth inhibition of human tumor cell lines: Leukemia (SR); assay type: cell-based; settings: cell line A = Leukemia (SR), NCI testing
Description: as §1

[2] = test system: Small cell lung cancer (DMS 114); assay: Growth inhibition of human tumor cell lines: Small cell lung cancer (DMS 114); assay type: cell-based; settings: cell line C = Small cell lung cancer (DMS 114), NCI testing
Description: as §1

Renal cancer (CAKI1) = assay: Growth inhibition of human tumor cell lines: Renal cancer (CAKI1); assay type: cell-based; settings: CAKI-1, cell line H = Renal cancer (CAKI1), NCI testing
Description: as §1

Colon cancer (HCT116) = assay: Growth inhibition of human tumor cell lines: Colon cancer (HCT116); assay type: cell-based; settings: HCT-116, cell line D = Colon cancer (HCT116), NCI testing
Description: as §1

[3] = test system: Nonsmall cell lung cancer (NCIH522); assay: Growth inhibition of human tumor cell lines: Nonsmall cell lung cancer (NCIH522); assay type: cell-based; settings: NCI-H522, cell line B = Nonsmall cell lung cancer (NCIH522), NCI testing
Description: as §1

CNS cancer (SF539) = assay: Growth inhibition of human tumor cell lines: CNS cancer (SF539); assay type: cell-based; settings: SF-539, cell line E = CNS cancer (SF539), NCI testing
Description: as §1

CCC(C)(NC(=O)c1ccccc1)C(=O)CCl (stereo not shown) [Compound 36]
inhibition at 50 µM ([1]; 48 hours): 91%

CCC(C)(NC(=O)c1cc(F)cc(F)c1)C(=O)CCl (stereo not shown) [Compound 34]
inhibition at 20 µM ([1]; 48 hours): 88%

CCC(C)(NC(=O)c1cc(C)cc(Cl)c1)C(=O)CCl (stereo not shown) [Compound 25]
Percent inhibition of microtubule assembly (tubulin; 50 μM): 30.9% | inhibition at 10 µM ([1]; 10 micromolar, 48 hours): 95%

CC(C)(NC(=O)c1cccs1)C(=O)C(Br)Br [Compound 49]
inhibition at 2 µM ([1]; 48 hours): 97%

CCC(C)(NC(=O)c1ccc2ocnc2c1)C(=O)CCl (stereo not shown) [Compound 54]
inhibition at 50 µM ([1]; 48 hours): 36%

CC(C)(NC(=O)c1cc(Cl)nc(Cl)c1)C(=O)CCl [Compound 43]
inhibition at 4 µM ([1]; 4 micromolar, 48 hours): 92%

CCC(C)(NC(=O)c1cccc(Br)c1)C(=O)C(Br)Br (stereo not shown) [Compound 7]
GI50 (Ovarian cancer (OVCAR8)): 3.01 µM | GI50 (Melanoma (SKMEL-2)): 2.74 µM | Percent inhibition of microtubule assembly (tubulin; 5 μM): 97.0% | GI50 (Leukemia (SR)): 2320 nM | GI50 [2]: 1.83 µM | GI50 (Renal cancer (CAKI1)): 2.82 µM | GI50 (Colon cancer (HCT116)): 3.39 µM | inhibition at 2 µM ([1]; 48 hours): 92% | GI50 [3]: 1080 nM | GI50 (CNS cancer (SF539)): 2.29 µM

CC(C)(NC(=O)c1cc(Cl)nc(Cl)c1)C(=O)C(Br)Br [Compound 42]
inhibition at 2 µM ([1]; 48 hours): 98%

CC(C)(NC(=O)c1cc(Cl)sc1Cl)C(=O)CCl [Compound 52]
inhibition at 20 µM ([1]; 48 hours): 89%

CC(C)(NC(=O)c1ccccc1)C(=O)CCl [Compound 39]
inhibition at 50 µM ([1]; 48 hours): 96%

CC(C)(NC(=O)c1cc(Cl)cc(Cl)c1)C(=O)CN=C=S [Compound 27]
inhibition at 10 µM ([1]; 48 h): 61%

CCC(C)(NC(=O)c1cc(Cl)c(F)c(Cl)c1)C(=O)CCl (stereo not shown) [Compound 31]
inhibition at 20 µM ([1]; 48 hours): 97%

CCC(C)(NC(=O)c1cc(F)c(F)c(F)c1)C(=O)CCl (stereo not shown) [Compound 37]
inhibition at 50 µM ([1]; 48 hours): 96%

CCCC(NC(=O)c1cc(Cl)cc(Cl)c1)C(=O)C(Br)Br (stereo not shown) [Compound 6]
inhibition at 2 µM ([1]; 48 hours): 75%

CCC(C)(NC(=O)c1cc(Cl)cc(Br)c1)C(=O)C(Br)Br (stereo not shown) [Compound 41]
Percent inhibition of microtubule assembly (tubulin; 5 μM): 76.0%

CCC(C)(NC(=O)c1cc(Cl)cc(Cl)c1)C(=O)CSC#N (stereo not shown) [Compound 26]
GI50 (Ovarian cancer (OVCAR8)): 11.9 µM | GI50 (Melanoma (SKMEL-2)): 12.2 µM | Percent inhibition of microtubule assembly (tubulin; 50 μM): 56.6% | GI50 (Leukemia (SR)): 5690 nM | GI50 [2]: 3.71 µM | GI50 (Renal cancer (CAKI1)): 13.3 µM | GI50 (Colon cancer (HCT116)): 4.85 µM | inhibition at 10 µM ([1]; 10 micromolar, 48 hours): 67% | GI50 [3]: 3770 nM | GI50 (CNS cancer (SF539)): 3.45 µM

CCC(C)(NC(=O)c1ccc(Br)o1)C(=O)C(Br)Br (stereo not shown) [Compound 50]
inhibition at 10 µM ([1]; 10 micromolar, 48 hours): 95%

CC(C)(NC(=O)c1cc(Cl)cc(Cl)c1)C(=O)C(Cl)Cl [Compound 40]
inhibition at 50 µM ([1]; 48 hours): 92%

CCCCCC(C)(NC(=O)c1cc(Cl)cc(Cl)c1)C(=O)C(Br)Br (stereo not shown) [Compound 10]
inhibition at 2 µM ([1]; 48 hours): 96%

CCC(C)(NC(=O)c1cc(Cl)c2ncoc2c1)C(=O)CCl (stereo not shown) [Compound 56]
inhibition at 10 µM ([1]; 10 micromolar, 48 hours): 81%

CC(C)(NC(=O)c1cc(Cl)cc(Cl)c1)C(=O)C(Cl)Br (stereo not shown) [Compound 15]
GI50 (Ovarian cancer (OVCAR8)): 12.1 µM | GI50 (Melanoma (SKMEL-2)): 16.6 µM | Percent inhibition of microtubule assembly (tubulin; 50 μM): 94.6% | GI50 (Leukemia (SR)): 2850 nM | GI50 [2]: 6.65 µM | GI50 (Renal cancer (CAKI1)): 10.8 µM | GI50 (Colon cancer (HCT116)): 10.4 µM | inhibition at 2 µM ([1]; 48 hours): 90% | GI50 [3]: 1290 nM | GI50 (CNS cancer (SF539)): 10.8 µM

CCC(C)(NC(=O)c1cc(Cl)c(C)c(Cl)c1)C(=O)CCl (stereo not shown) [Compound 32]
inhibition at 20 µM ([1]; 48 hours): 96%

CCC(C)(NC(=O)c1cccc(NC(=O)OC)c1)C(=O)CCl (stereo not shown) [Compound 22]
inhibition at 10 µM ([1]; 10 micromolar, 48 hours): 96%

CCC(C)(NC(=O)c1cc(Cl)c2nc(C)oc2c1)C(=O)CCl (stereo not shown) [Compound 57]
inhibition at 10 µM ([1]; 10 micromolar, 48 hours): 97%

CC(C)C(C)(NC(=O)c1cc(Cl)cc(Cl)c1)C(=O)CCl (stereo not shown) [Compound 38]
inhibition at 50 µM ([1]; 48 hours): 66%

CCC(C)(NC(=O)c1cc(C)cc(Br)c1)C(=O)CCl (stereo not shown) [Compound 5]
Percent inhibition of microtubule assembly (tubulin; 50 μM): 88.7% | inhibition at 2 µM ([1]; 48 hours): 91%
